# Experimental data published in ChEMBL document CHEMBL6071143, “Discovery of a potent melatonin-based inhibitor of quinone reductase-2 with neuroprotective and neurogenic properties” (Eur J Med Chem, 2024).
# Active and inactive are the calls of the source. The calls are words filed in the database; no cut-off is given here.
# Legend:
# [1] = target: T1, Ribosyldihydronicotinamide dehydrogenase [quinone] (Homo sapiens, UniProt P16083); assay: Inhibition of human QR2 expressed in Escherichia coli preincubated with BNAH or NRH followed by menadione addition by FLUOstar plate reader assay
# T1 sequence (P16083 whole entry): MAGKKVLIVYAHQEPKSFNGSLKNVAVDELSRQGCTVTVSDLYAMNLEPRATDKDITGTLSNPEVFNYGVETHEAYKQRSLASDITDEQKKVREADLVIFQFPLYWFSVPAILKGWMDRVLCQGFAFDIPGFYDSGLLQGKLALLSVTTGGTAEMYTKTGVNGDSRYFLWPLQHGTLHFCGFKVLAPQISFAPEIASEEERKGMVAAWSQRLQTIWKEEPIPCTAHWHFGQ
# [2] = Displacement of 2-[125I]iodomelatonin from human MT2R transfected in CHO cells incubated for 30 mins; type: cell-based
# [3] = Displacement of 2-[125I]iodomelatonin from human MT1R transfected in CHO cells incubated for 30 mins; type: cell-based
# [4] = Aqueous solubility of compound incubated for 24 hrs by UV-spectra analysis; type: physicochemical
# SH-SY5Y [5] = assay: Neuroprotective activity against R/O induced human SH-SY5Y cells oxidative stress model assessed as cell survival at 1 uM preincubated for 24 hrs followed by rotenone oligomycin A addition and measured after 24 hrs by MTT assay; type: functional; conditions: read-out: Survival
# [6] = Antioxidant activity assessed as oxygen radical scavenging by measuring trolox equivalents preincubated for 15 mins followed by AAPH addition and measured after 80 mins by fluorescence plate reader assay; type: functional; conditions: time 95.0 min
# SH-SY5Y [7] = assay: Cytotoxicity against human SH-SY5Y cells at 1 to 100 uM incubated for 24 hrs by MTT method; type: toxicity, cell-based; conditions: dose 1-100 µM
# NSC [8] = assay: Neurogenic activity in C57BL/6 mouse primary NSCs assessed as increase in number of MAP-2 cells at 10 uM incubated for 10 days by DAPI staining based fluorescence confocal microscopy; type: functional, cell-based; conditions: time 10.0 day
# [9] = Octanol-water partition coefficient, logD of the compound at pH 7.4; type: physicochemical
# [10] = Octanol-water partition coefficient, logD of the compound at pH 6; type: physicochemical
# CHO = assay: Displacement of 2-[125I]iodomelatonin from human MT1R transfected in CHO cells at 10 uM incubated for 30 mins relative to control; type: cell-based
# [11] = target: T2, Amine oxidase [flavin-containing] B (Homo sapiens, UniProt P27338); assay: Inhibition of human MAO-B expressed in baculovirus infected BTI insect cells preincubated for 15 mins followed by p-tyramine addition by amplex red reagent based fluorescence microplate reader assay; type: cell-based
# T2 sequence (P27338 whole entry): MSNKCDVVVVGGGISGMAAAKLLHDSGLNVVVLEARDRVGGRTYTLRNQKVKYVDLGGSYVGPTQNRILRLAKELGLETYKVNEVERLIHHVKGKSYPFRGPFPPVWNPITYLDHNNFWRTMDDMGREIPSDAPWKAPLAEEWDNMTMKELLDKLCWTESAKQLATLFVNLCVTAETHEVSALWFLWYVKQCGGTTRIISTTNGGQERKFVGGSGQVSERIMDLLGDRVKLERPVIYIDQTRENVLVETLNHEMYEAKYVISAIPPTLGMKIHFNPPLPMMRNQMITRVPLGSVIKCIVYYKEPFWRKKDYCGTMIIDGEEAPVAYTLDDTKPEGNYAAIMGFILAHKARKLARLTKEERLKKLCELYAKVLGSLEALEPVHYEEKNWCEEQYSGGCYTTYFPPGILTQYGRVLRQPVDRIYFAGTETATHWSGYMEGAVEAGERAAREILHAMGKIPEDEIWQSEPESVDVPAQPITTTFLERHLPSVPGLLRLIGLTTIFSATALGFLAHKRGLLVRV
# [12] = Octanol-water partition coefficient, logD of the compound at pH 4; type: physicochemical
# [13] = Octanol-water partition coefficient, logD of the compound at pH 1; type: physicochemical
# NSC [14] = assay: Neurogenic activity in C57BL/6 mouse primary NSCs assessed as increase in number of TuJ-1 cells at 10 uM incubated for 10 days by DAPI staining based fluorescence confocal microscopy; type: functional, cell-based; conditions: time 10.0 day
# [15] = Octanol-water partition coefficient, logD of the compound at pH 2; type: physicochemical
# [16] = Octanol-water partition coefficient, logD of the compound at pH 9; type: physicochemical
# SH-SY5Y [17] = assay: Neuroprotective activity against R/O induced human SH-SY5Y cells oxidative stress model assessed as increase in cell survival preincubated for 24 hrs followed by rotenone oligomycin A addition and measured after 24 hrs by MTT assay; type: functional, cell-based; conditions: dose 0.01-10 µM, time 48.0 hrs
# [18] = Octanol-water partition coefficient, logD of the compound at pH 12; type: physicochemical
# [19] = Octanol-water partition coefficient, logD of the compound at pH 8; type: physicochemical
# [20] = Octanol-water partition coefficient, logD of the compound at pH 1.2; type: physicochemical
# [21] = Octanol-water partition coefficient, logD of the compound at pH 11; type: physicochemical
# [22] = Octanol-water partition coefficient, logD of the compound at pH 6.5; type: physicochemical
# [23] = target: T3, Amine oxidase [flavin-containing] A (Homo sapiens, UniProt P21397); assay: Inhibition of human MAO-A expressed in baculovirus infected BTI insect cells preincubated for 15 mins followed by p-tyramine addition by amplex red reagent based fluorescence microplate reader assay
# T3 sequence (P21397 whole entry): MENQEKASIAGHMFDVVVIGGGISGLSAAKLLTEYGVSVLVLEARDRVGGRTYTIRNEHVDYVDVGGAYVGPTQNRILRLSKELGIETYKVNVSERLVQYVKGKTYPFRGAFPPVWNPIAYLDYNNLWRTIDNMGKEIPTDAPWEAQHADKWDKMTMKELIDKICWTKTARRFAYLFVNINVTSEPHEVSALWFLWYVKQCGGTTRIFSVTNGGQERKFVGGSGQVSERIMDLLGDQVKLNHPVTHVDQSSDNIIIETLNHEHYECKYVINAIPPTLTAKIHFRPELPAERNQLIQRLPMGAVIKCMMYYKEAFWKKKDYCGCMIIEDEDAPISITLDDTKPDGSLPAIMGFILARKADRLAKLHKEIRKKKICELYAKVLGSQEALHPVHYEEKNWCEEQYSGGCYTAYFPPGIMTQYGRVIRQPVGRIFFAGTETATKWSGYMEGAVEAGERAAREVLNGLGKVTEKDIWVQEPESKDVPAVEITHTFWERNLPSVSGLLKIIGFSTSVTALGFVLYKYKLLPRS
# [24] = Dissociation constant, pKa of compound; type: physicochemical
# [25] = Octanol-water partition coefficient, logD of the compound at pH 7; type: physicochemical
# [26] = Octanol-water partition coefficient, logD of the compound at pH 5; type: physicochemical
# [27] = Octanol-water partition coefficient, logD of the compound at pH 10; type: physicochemical
# [28] = target: T4, Polyunsaturated fatty acid 5-lipoxygenase (Homo sapiens, UniProt P09917); assay: Inhibition of human LOX-5 preincubated for 10 mins followed by AA addition and measured after 20 mins in presence of ATP by fluorescence based assay
# T4 sequence (P09917 whole entry): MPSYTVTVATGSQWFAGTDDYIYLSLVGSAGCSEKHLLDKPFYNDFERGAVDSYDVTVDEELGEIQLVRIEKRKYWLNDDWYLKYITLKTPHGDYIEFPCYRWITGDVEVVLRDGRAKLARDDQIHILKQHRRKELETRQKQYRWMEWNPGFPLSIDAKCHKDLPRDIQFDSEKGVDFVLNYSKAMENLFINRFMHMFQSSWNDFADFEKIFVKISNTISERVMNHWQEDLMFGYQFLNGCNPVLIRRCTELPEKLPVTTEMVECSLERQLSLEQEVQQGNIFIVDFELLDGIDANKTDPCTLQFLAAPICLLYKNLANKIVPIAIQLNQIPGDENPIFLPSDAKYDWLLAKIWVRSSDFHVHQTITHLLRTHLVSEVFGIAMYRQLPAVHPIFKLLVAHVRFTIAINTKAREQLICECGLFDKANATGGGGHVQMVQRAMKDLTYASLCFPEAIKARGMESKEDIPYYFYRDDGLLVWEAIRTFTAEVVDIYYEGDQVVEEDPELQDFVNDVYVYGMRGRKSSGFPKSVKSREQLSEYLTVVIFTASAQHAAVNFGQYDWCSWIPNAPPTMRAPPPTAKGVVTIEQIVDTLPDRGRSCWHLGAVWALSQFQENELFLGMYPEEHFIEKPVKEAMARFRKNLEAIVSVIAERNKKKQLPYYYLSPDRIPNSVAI
# [29] = Octanol-water partition coefficient, logD of the compound at pH 3; type: physicochemical
smiles,measurement,setting,value
COc1ccc2c(n1)c(CCNC(=O)c1ccco1)c1n2Cc2cccnc2-1,IC50,[1],5 nM
COc1ccc2[nH]cc(CCNC(C)=O)c2c1 [MELATONIN],Ki,[2],0.13 nM
same,Ki,[3],0.27 nM
same,solubility at 24 h,[4],6.64 mM
same,viability at 1 µM,SH-SY5Y [5],43%
same,Activity,[6],2.3
same,Activity,SH-SY5Y [7],Non-Toxic
COc1ccc2c(c1)CC(c1c[nH]c3ccc(OC)cc13)N2 (stereo unspecified),Ki,[2],620 nM
same,Ki,[3],~10000 nM
same,Activity,NSC [8],Active
same,logD,[9],3.31
same,logD,[10],3.26
same,Activity,CHO,58%
same,IC50,[11],3690 nM
same,logD,[12],2.28
same,logD,[13],1.66
same,Activity,NSC [14],Active
same,logD,[15],1.67
same,logD,[16],3.31
same,Activity,SH-SY5Y [17],Dose-Dependent Effect
same,logD,[18],3.31
same,logD,[19],3.31
same,logD,[20],1.65
same,logD,[21],3.31
same,logD,[22],3.3
same,solubility at 24 h,[4],0.0329 mM
same,IC50,[23],2540 nM
same,pKa,[24],5.26
same,viability at 1 µM,SH-SY5Y [5],50%
same,logD,[25],3.31
same,logD,[26],2.97
same,Activity,[6],2.3
same,Activity,SH-SY5Y [7],Non-Toxic
same,logD,[27],3.31
same,IC50,[28],5300 nM
same,logD,[29],1.78
